Laboratory results: patent EP2533787B1, “USE OF ISORHAMNETIN TRIGLYCOSIDES” (Dr. Willmar Schwabe GmbH & Co. KG, priority 2010, dated 2011)
Marks after values point to notes of the source that are not given here.

Columns and labels:
Mäuse = test: Light/dark box test ("Hell-Dunkel-Box"), frequency of compartment changes; assay type: in vivo; details: for Anzahl der Feldwechsel im Vergleich zur Vehikel-Kontrolle / Wechselhäufigkeit in der "Hell-Dunkel-Box": single dose; for Anzahl der Feldwechsel im Vergleich zur Vehikel-Kontrolle: tested after 60 min, observed 3 min; for Erkundungsverhalten ("exploratory behavior"): oral application in mice; for Erkundungsverhalten ("exploratory behavior") / Wechselhäufigkeit in der "Hell-Dunkel-Box": result in words; for Wechselhäufigkeit in der "Hell-Dunkel-Box": oral
Text: Die aktivitätssteigernde Wirkung der Isorhamnetintriglycoside 2, 3 und 4 wurde an Versuchstieren im sogenannten "Hell-Dunkel-Box" System getestet.
Das Prinzip des verwendeten Testsystems beruht darauf, dass Mäuse einem Verhaltensparadigma ausgesetzt werden, das zwei gegensätzliche Verhaltensmuster aktiviert. Die Box besteht aus zwei Kompartimenten von denen ein kleinerer dunkler Teil von einem hellen und größeren Teil durch eine Wand getrennt wird. In der Mitte der Wand befindet sich eine kleine Öffnung, die es dem Versuchstier ermöglicht zwischen den beiden Kompartimenten zu wechseln. Der Versuch beginnt mit dem Einsetzen der Maus in das helle Feld. Das angeborene Dunkelpräferenzverhalten führt dazu, dass die Tiere nach einer kurzen Latenzzeit in das dunkle -sichere Kompartiment wechseln. Nach kurzer Zeit führt aber das ebenso stark ausgeprägte Neugierverhalten (Erkundungsverhalten) dazu, dass die Mäuse wieder in das helle Kompartiment wechseln. Somit stehen zwei angeborene Verhaltensweisen, nämlich die Dunkelpräferenz (Vermutlich als Schutz vor Beutegreifern) und das Erkundungsverhalten (wichtig für Nahrungssuche, Partnersuche) im Konflikt, die für eine Dauer von 3 Minuten aufgezeichnet werden. Arzneimittel, die beruhigende pharmakologische Effekte haben, führen zu einer Verminderung der Wechselhäufigkeit zwischen den Kompartimenten, während Arzneimittel mit stimulierenden Aktivitäten die Wechselhäufigkeit steigern. Die Wechselhäufigkeit ist somit ein Index für aktivitätsgesteuertes Erkundungsverhalten als Zeichen einer Habituation (M. Bourin, and M. Hascoet, "The mouse light/dark box test", Eur. J. Pharmacol. 463 (2003) 55 - 65). Die Versuchsanordnung betrachtet somit Verhaltensparameter, die geeignet sind das Maß an Aktivität zu messen und zu bewerten.
Um die aktivitätssteigernden Effekte der Isorhamnetintriglycoside 2, 3 und 4 zu testen wurden Mäuse einmalig mit verschieden hohen Dosierungen der Flavone behandelt. Zum Vergleich wurden einige Tiere entweder mit dem sedierenden Benzodiazepin Lorazepam oder mit dem aktivitätssteigernden Präparat Methamphetamin oder mit einer wirkungslosen Kontrolllösung behandelt. Nach 60 Minuten wurden die Tiere in das helle Kompartiment der "Hell-Dunkel-Box" gesetzt und über einen Zeitraum von 3 Minuten beobachtet. Als Maß der Aktivität wurde die Häufigkeit der Feldwechsel gemessen. […] Tabelle 2: Wirkung der Isorhamnetintriglycoside 2 und 3 im Vergleich zum Anxiolytikum Lorazepam. Gemessen wird die Anzahl der Feldwechsel im Vergleich zur Vehikel-Kontrolle.

[1] = system: Hippocampus Schnittpräparaten; test: Long-term potentiation (LTP) in hippocampal slice preparations, POP spikes; assay type: cell-based, Wistar-Ratten; details: result in words; for Langzeitpotenzierung: rat brain slice preparations, compared with buffer solution; for Reizantwort nach LTP-Stimulation: size of POP spikes after repeated LTP induction, compared with solvent
Text: Um den Einfluss der Isorhamnetintriglycoside 2 und 4 auf mentale Funktionen zu testen wurde die Induktion der sogenannten Langzeitpotenzierung (LTP) verwendet. In Hirnschnitt-Präparaten von Wirbeltieren dient LTP als zelluläres Modell für Lernvorgänge, vor allem im Arbeitsgedächtnis (T. V. P. Bliss, and G. L. Collingridge, "A synaptic model of memory: Long-term potentiation in the hippocampus", Nature 361 (1993) 31 - 39). Durch wiederholte Reizung von Neuronen wird eine langandauernde Verstärkung der synaptischen Übertragung induziert, die durch eine Stabilisierung oder Aktivierung sogenannter ruhender Synapsen ("silent synapses) zu einer Neubildung von Verschaltungsmustern zustande kommt (Lernen). Die am besten untersuchte Region des Gehirns für LTP Messungen ist der Hippocampus, der für die Verarbeitung von Lernvorgängen eine zentrale Rolle spielt, allerdings findet LTP auch in anderen Hirnregionen statt (G. A. Kerchner, and R.A. Nicoll, "Silent synapses and the emergence of a postsynaptic mechanism for LTP", Nat. Rev. Neurosci. 9 (2008) 813 - 825). Bei Ratten und anderen Nagern ist die Langzeitpotenzierung insbesondere mit der Ausbildung des räumlichen Lernens assoziiert (J. R. Whitlock, A. J. Heynen, M. G. Shuler, and M. F. Bear, "Learning induced long-term potentiation in the hippocampus", Science 313 (2006) 1093 - 1097).
Die Experimente wurden an Hippocampus Schnittpräparaten von 8-12 Wochen alten weiblichen Wistar-Ratten durchgeführt. Die Hirnschnitte werden bei 35°C in einer Messkammer gehalten und mit einer Nährlösung perfundiert. Glasmikroelektroden werden im dendritischen Bereich des Stratum pyramidale (CA1) platziert um "Population Spikes" (POP-Spikes) zu registrieren. Die Schaffer-Kollateralen werden mit bipolaren Reizelektroden aus Platin-Draht stimuliert und die resultierenden Aktionspotentiale (POP Spikes) gemessen. Der eigentliche Versuch beginnt nach einer Äquilibrierungszeit von 60 Minuten in welcher die Hirnschnitte nicht manipuliert werden. Anschließend werden die Elektroden platziert und begonnen die Schaffer Kollateralen mit steigender Stromstärke zu stimulieren. Nach Erreichen der maximalen Reizantwort wird die Stromstärke so reduziert, dass nur noch 50% der maximal möglichen Reizstärke erreicht werden. Dadurch kann im späteren Versuch überprüft werden ob eine Verstärkung der Reizantwort möglich ist. Anschließend wird alle 10 Sekunden mit der submaximalen Reizstärke stimuliert und die POP Spikes registriert. Die erste LTP-Induktion beginnt mit einer repetitiven Reizung (100 Hz für 1 Sekunde). Der 1. Stimulation folgt die erneute Einzelstimulation (alle 10 Sekunden ein submaximaler Reiz) für zehn Minuten. Diese erste Stimulation dient der Überprüfung, ob der Hirnschnitt eine Reizantwort auf die LTP-Induktion zeigt. […]

## COc1cc(-c2oc3cc(O)cc(O)c3c(=O)c2O[C@@H]2O[C@H](CO[C@@H]3O[C@@H](C)[C@H](O[C@@H]4O[C@@H](C)[C@H](O)[C@@H](O)[C@H]4O)[C@@H](O)[C@H]3O)[C@@H](O)[C@H](O)[C@H]2O)ccc1O [Verbindung 3, 3-[(O-6-Deoxy-α-L-mannopyranosyl-(1→4)-O-6-deoxy-α-L-mannopyranosyl-(1→6)-ß-D-glucopyranosyl)oxy]-5,7-dihydroxy-2-(4-hydroxy-3-methoxyphenyl)-4H-1-benzopyran-4-on]
Mäuse; 3 mg/kg po
  Anzahl der Feldwechsel im Vergleich zur Vehikel-Kontrolle: +15 % der Kontrolle
Mäuse
  Erkundungsverhalten ("exploratory behavior"): deutlichen, dosisabhängigen und statistisch signifikantem Ansteigen des Erkundungsverhaltens

## COc1cc(-c2oc3cc(O)cc(O)c3c(=O)c2O[C@@H]2O[C@H](CO[C@@H]3O[C@@H](C)[C@H](O)[C@@H](O)[C@H]3O)[C@H](O)[C@H](O)[C@H]2O[C@@H]2OC[C@@H](O)[C@H](O)[C@H]2O)ccc1O [Verbindung 2, 3-[(O-6-Deoxy-α-L-mannopyranosyl-(1→6)-O-[ß-D-xylopyranosyl-(1→2)]-ß-D-galactopyranosyl)oxy]-5,7-dihydroxy-2-(4-hydroxy-3-methoxy-phenyl)-4H-1-benzopyran-4-on]
[1]
  Langzeitpotenzierung: deutlich gesteigert
  Reizantwort nach LTP-Stimulation: deutliche Steigerung der Reizantwort
Mäuse; 10 mg/kg po
  Anzahl der Feldwechsel im Vergleich zur Vehikel-Kontrolle: +100 # % der Kontrolle
Mäuse; 30 mg/kg po
  Anzahl der Feldwechsel im Vergleich zur Vehikel-Kontrolle: +38 % der Kontrolle
Mäuse
  Erkundungsverhalten ("exploratory behavior"): deutlichen, dosisabhängigen und statistisch signifikantem Ansteigen des Erkundungsverhaltens
Mäuse; 30 mg/kg
  Wechselhäufigkeit in der "Hell-Dunkel-Box": geht dieser Effekt verloren
Mäuse; 3 und 10 mg/kg
  Wechselhäufigkeit in der "Hell-Dunkel-Box": deutlichen, signifikanten Steigerung der Wechselhäufigkeit

## COc1cc(-c2oc3cc(O)cc(O)c3c(=O)c2O[C@@H]2O[C@H](CO[C@@H]3O[C@@H](C)[C@H](O)[C@@H](O)[C@H]3O)[C@@H](O)[C@H](O)[C@H]2O[C@@H]2OC[C@@H](O)[C@H](O)[C@H]2O)ccc1O [Verbindung 4, 3-[(O-6-Deoxy-α-L-mannopyranosyl-(1→6)-O-[ß-D-xylopyranosyl-(1→2)]-ß-D-glucopyranosyl)oxy]-5,7-dihydroxy-2-(4-hydroxy-3-methoxyphenyl)-4H-1-benzopyran-4-on]
[1]
  Langzeitpotenzierung: deutlich gesteigert
  Reizantwort nach LTP-Stimulation: deutliche Steigerung der Reizantwort

## CNC(C)Cc1ccccc1 (centres unmarked) [Methamphetamin]
Mäuse; 0,3 mg/kg peroral
  Wechsel Anzahl: 7,5 ± 2,1
  Wechsel Prozent der Kontrolle: +7%
Mäuse; 1,0 mg/kg peroral
  Wechsel Anzahl: 10,6 ± 1,6
  Wechsel Prozent der Kontrolle: +51%
Mäuse; 3,0 mg/kg peroral
  Wechsel Anzahl: 10,9 ± 3,3
  Wechsel Prozent der Kontrolle: +56%
Mäuse; 10,0 mg/kg peroral
  Wechsel Anzahl: 0,6 ± 1,2
  Wechsel Prozent der Kontrolle: -91%

## O=C1Nc2ccc(Cl)cc2C(c2ccccc2Cl)=NC1O (centres unmarked) [Lorazepam]
Mäuse; 0,3 mg/kg po
  Anzahl der Feldwechsel im Vergleich zur Vehikel-Kontrolle: -46 % der Kontrolle
